Measurements: the supplement of paper PMC10307832

The cell lines below were run with Cc1ccc(Nc2nccc(N(C)c3ccc4c(C)n(C)nc4c3)n2)cc1S(N)(=O)=O [Pazopanib] + N=C(N)NC(=N)NCCc1ccccc1 [Phenformin] (partner 250 µM) (assay: relative viability (nuclei count vs DMSO), 5 days (fraction); higher = more cells survive). Conditions: first compound 0.01 µM.
Method in brief: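 Cells from lung cancer lines were seeded into 1536-well plates and, one day later, dosed by pin tool. Treatments were either a single drug or a fixed dose of an anchor drug with five library-drug doses (not always all listed) in √10 steps. After 5 days, nuclei were stained in a one-step fixation (final 0.05% Triton X-100, 1% formaldehyde, 1 ug/ml Hoechst) and counted on 4× images, and relative viability is the treated-to-vehicle nuclei ratio, as the median of duplicate plates.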

Row | Cell Line | relative viability
1 | HCC-78 | 0.531
2 | NCI-H441 | 0.741
3 | LCLC-97TM1 | 0.242
4 | NCI-H2009 | 0.504
5 | A-427 | 0.309
6 | NCI-H1563 | 0.64

Same assay, conditions: first compound 0.03162 µM

Row | Cell Line | relative viability
7 | NCI-H2342 | 0.635
8 | NCI-H1623 | 0.541
9 | NCI-H838 | 0.648
10 | NCI-H1650 | 0.559
11 | NCI-H1993 | 0.457
12 | NCI-H2347 | 0.385
13 | PC-14 | 0.692
14 | LCLC-103H | 0.338
15 | NCI-H596 | 0.916
16 | NCI-H2126 | 0.521
17 | EMC-BAC-2 | 0.513
18 | NCI-H2085 | 0.835
19 | HCC-366 | 0.642
20 | NCI-H1666 | 0.581
21 | NCI-H647 | 0.643
22 | LK-2 | 0.449
23 | NCI-H2087 | 0.464
24 | NCI-H1395 | 0.441
25 | H3255 | 0.33
26 | COR-L23 | 0.459

Row | Cell Line | relative viability
27 | COR-L 105 | 0.553
28 | LOU-NH91 | 0.731
29 | ChaGo-K-1 | 0.428
30 | NCI-H358 | 0.384
31 | NCI-H3122 | 0.388
32 | HOP-62 | 0.627
33 | HCC-44 | 0.213
34 | A549 | 0.169
35 | NCI-H522 | 0.618
36 | LU99A | 0.943
37 | BEN | 0.281
38 | HARA | 0.363
39 | SW 900 | 0.628
40 | HCC-78 | 0.696
41 | NCI-H441 | 0.911
42 | LCLC-97TM1 | 0.419
43 | NCI-H2009 | 0.47
44 | A-427 | 0.4
45 | NCI-H1563 | 0.664

Same assay, conditions: first compound 0.1 µM

Row | Cell Line | relative viability
46 | NCI-H2342 | 0.538
47 | NCI-H1623 | 0.58
48 | NCI-H838 | 0.587
49 | NCI-H1650 | 0.418
50 | NCI-H1993 | 0.502
51 | NCI-H2347 | 0.38
52 | PC-14 | 0.607
53 | LCLC-103H | 0.344
54 | NCI-H596 | 0.732
55 | NCI-H2126 | 0.537
56 | EMC-BAC-2 | 0.498
57 | NCI-H2085 | 0.683
58 | HCC-366 | 0.547
59 | NCI-H1666 | 0.575
60 | NCI-H647 | 0.541
61 | LK-2 | 0.639
62 | NCI-H2087 | 0.445
63 | NCI-H1395 | 0.454
64 | H3255 | 0.365
65 | COR-L23 | 0.41

Row | Cell Line | relative viability
66 | COR-L 105 | 0.52
67 | LOU-NH91 | 0.605
68 | ChaGo-K-1 | 0.535
69 | NCI-H358 | 0.37
70 | NCI-H3122 | 0.345
71 | HOP-62 | 0.734
72 | HCC-44 | 0.256
73 | A549 | 0.178
74 | NCI-H522 | 0.71
75 | LU99A | 0.796
76 | BEN | 0.288
77 | HARA | 0.486
78 | SW 900 | 0.398
79 | HCC-78 | 0.626
80 | NCI-H441 | 0.811
81 | LCLC-97TM1 | 0.389
82 | NCI-H2009 | 0.451
83 | A-427 | 0.286
84 | NCI-H1563 | 0.673

Same assay, conditions: first compound 0.3162 µM

Row | Cell Line | relative viability
85 | NCI-H2342 | 0.572
86 | NCI-H1623 | 0.574
87 | NCI-H838 | 0.647
88 | NCI-H1650 | 0.537
89 | NCI-H1993 | 0.591
90 | NCI-H2347 | 0.468
91 | PC-14 | 0.823
92 | LCLC-103H | 0.344
93 | NCI-H596 | 0.879
94 | NCI-H2126 | 0.53
95 | EMC-BAC-2 | 0.536
96 | NCI-H2085 | 0.694
97 | HCC-366 | 0.608
98 | NCI-H1666 | 0.613
99 | NCI-H647 | 0.663
100 | LK-2 | 0.594
101 | NCI-H2087 | 0.483
102 | NCI-H1395 | 0.511
103 | H3255 | 0.306

Row | Cell Line | relative viability
104 | COR-L23 | 0.463
105 | COR-L 105 | 0.724
106 | LOU-NH91 | 0.751
107 | ChaGo-K-1 | 0.547
108 | NCI-H3122 | 0.36
109 | HOP-62 | 0.673
110 | HCC-44 | 0.234
111 | A549 | 0.142
112 | NCI-H522 | 0.7
113 | LU99A | 0.923
114 | BEN | 0.266
115 | HARA | 0.467
116 | SW 900 | 0.593
117 | HCC-78 | 0.635
118 | NCI-H441 | 0.986
119 | LCLC-97TM1 | 0.43
120 | NCI-H2009 | 0.453
121 | A-427 | 0.332
122 | NCI-H1563 | 0.722

Same assay, conditions: first compound 1 µM

Row | Cell Line | relative viability
123 | NCI-H2342 | 0.569
124 | NCI-H1623 | 0.595
125 | NCI-H838 | 0.753
126 | NCI-H1650 | 0.464
127 | NCI-H1993 | 0.496
128 | NCI-H2347 | 0.377
129 | PC-14 | 0.677
130 | LCLC-103H | 0.342
131 | NCI-H596 | 0.963
132 | NCI-H2126 | 0.587
133 | EMC-BAC-2 | 0.537
134 | NCI-H2085 | 0.833
135 | HCC-366 | 0.638
136 | NCI-H1666 | 0.67
137 | NCI-H647 | 0.615
138 | LK-2 | 0.301
139 | NCI-H2087 | 0.513
140 | NCI-H1395 | 0.51
141 | H3255 | 0.367
142 | COR-L23 | 0.493

Row | Cell Line | relative viability
143 | COR-L 105 | 0.636
144 | LOU-NH91 | 0.731
145 | ChaGo-K-1 | 0.495
146 | NCI-H358 | 0.548
147 | NCI-H3122 | 0.376
148 | HOP-62 | 0.665
149 | HCC-44 | 0.213
150 | A549 | 0.18
151 | NCI-H522 | 0.65
152 | LU99A | 0.945
153 | BEN | 0.238
154 | HARA | 0.479
155 | SW 900 | 0.689
156 | HCC-78 | 0.622
157 | NCI-H441 | 1.01
158 | LCLC-97TM1 | 0.452
159 | NCI-H2009 | 0.388
160 | A-427 | 0.288
161 | NCI-H1563 | 0.758
